Among the data in US11981677B2, “Further substituted triazolo quinoxaline derivatives” (Grünenthal GmbH, priority 2018, dated 2024) are IC50 or EC50 (antagonist or agonist mode, not stated per compound) values, retold here.

This test deals with T1, Glucocorticoid Receptor (Homo sapiens, UniProt P04150).
T1 construct: expressed in transfected cells
T1 sequence (P04150 524-758 limits assumed): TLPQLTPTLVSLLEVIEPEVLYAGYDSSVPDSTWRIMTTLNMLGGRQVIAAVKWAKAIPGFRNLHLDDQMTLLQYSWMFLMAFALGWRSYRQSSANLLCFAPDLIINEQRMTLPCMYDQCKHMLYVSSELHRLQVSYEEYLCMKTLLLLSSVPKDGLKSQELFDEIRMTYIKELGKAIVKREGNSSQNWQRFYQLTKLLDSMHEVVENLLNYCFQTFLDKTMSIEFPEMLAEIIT
The test is described as follows: Agonistic mode of action on the glucocorticoid receptor (CHO-Gal4/GR luciferase reporter cell line). The format is cell-based. To be noted: CHO-Gal4/GR luciferase reporter cells; observed in the agonistic assay or the antagonistic assay (mode not given); read-out: IC50 or EC50 range. The essentials:
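CHO cells stably expressing GAL4 DBD–GR ligand-binding domain fusion with GAL4-UAS firefly luciferase reporter, seeded 24 h, then treated in Opti-MEM with 8 half-log concentrations from 10 μM to 0.003 μM (0.5% DMSO), quadruplicate. Luminescence read on FLIPR after lysis with Triton/luciferin; EC50 calculated.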
A general note: Reporter assays use an easily measured gene product as a stand-in for the process of interest.

Each structure is given as a SMILES string.

In the case of `Cc1c(-c2cccc3c2cnn3S(C)(=O)=O)c(Cl)c(F)c2c1-n1c(C)nnc1C(C)(C)N2` [Example 527, 7-Chloro-6-fluoro-1,4,4,9-tetramethyl-8-(1-methylsulfonyl-1H-indazol-4-yl)-5H-[1,2,4]triazolo[4,3-a]quinoxaline], the IC50 or EC50 (antagonist or agonist mode, not stated per compound) lay in the range of 100 to 1000 nM.
